Assay results published in patent publication EP0140958B1, “ONCOLYTIC DRUG COMBINATIONS” (ELFORD, Howard L., priority 1983, dated 1984).
Counter-ions that a name gives are not always drawn.

Key:
L-1210 leukemia = L-1210 leukemia transplanted tumor in mice, life span; assay type: in vivo; set-up: Mean Life Span: unit not given here; conditions: for Percent Increase In Life Span: over controls; for increase in life span: summary of Tables I and II, drug by itself, any dose level
Procedure: In this procedure, L-1210 leukemia was maintained by weekly passage of 10^5 L-1210 cells intraperitoneally into DBA/2 mice. Diluted ascitic fluid, 0.1 ml. (10^5 cells), was administered up to female B6D2F, mice weighing about 20 g. Drugs were administered intraperitoneally to the animals. Injections containing doxorubicin were given only on day 2 and the 3,4-dihydroxybenzohydroxamic acid was given on days 2, 3 and 4.

L1210 leukemia = conditions: from Elford et al. and van't Riet et al. publications; cited from earlier work

SMILES: O=C(NO)c1ccc(O)c(O)c1 [3,4-dihydroxybenzohydroxamic acid]
- Mean Life Span (L-1210 leukemia; Table 1, 275 Mg./Kg. intraperitoneally, days 2, 3 and 4, four mice per group): 12.75
- Percent Increase In Life Span (L-1210 leukemia; Table 1, 275 Mg./Kg. intraperitoneally, days 2, 3 and 4): 17%
- Percent Cures (L-1210 leukemia; Table 1, 275 Mg./Kg. intraperitoneally, days 2, 3 and 4, survivors calculated at day 60): 0%
- Mean Life Span (L-1210 leukemia; Table 1, 430 Mg./Kg. intraperitoneally, days 2, 3 and 4, four mice per group): 13.0
- Percent Increase In Life Span (L-1210 leukemia; Table 1, 430 Mg./Kg. intraperitoneally, days 2, 3 and 4): 19%
- Percent Cures (L-1210 leukemia; Table 1, 430 Mg./Kg. intraperitoneally, days 2, 3 and 4, survivors calculated at day 60): 0%
- Mean Life Span (L-1210 leukemia; Table 1, 645 Mg./Kg. intraperitoneally, days 2, 3 and 4, four mice per group): no better than control
- Mean Life Span (L-1210 leukemia; Table 1, 645 Mg./Kg. intraperitoneally, days 2, 3 and 4, four mice per group, listed as 3,4-dihydroxy benzohydroxamic acid): 11.0
- Percent Increase In Life Span (L-1210 leukemia; Table 1, 645 Mg./Kg. intraperitoneally, days 2, 3 and 4): 1%
- Percent Cures (L-1210 leukemia; Table 1, 645 Mg./Kg. intraperitoneally, days 2, 3 and 4, survivors calculated at day 60): 0%
- Percent Increase In Life Span (L-1210 leukemia; Table II, 430 Mg./Kg. intraperitoneally, days 2, 3 and 4): 32%
- Percent Cures (L-1210 leukemia; Table II, 430 Mg./Kg. intraperitoneally, days 2, 3 and 4, survivors calculated on day 35): 0%
- Mean Life Span (L-1210 leukemia; Table II, 430 Mg./Kg. intraperitoneally, days 2, 3 and 4, three mice per group): 12
- Percent Increase In Life Span (L-1210 leukemia; Table II, 645 Mg./Kg. intraperitoneally, days 2, 3 and 4): 49%
- Percent Cures (L-1210 leukemia; Table II, 645 Mg./Kg. intraperitoneally, days 2, 3 and 4, survivors calculated on day 35): 0%
- Mean Life Span (L-1210 leukemia; Table II, 645 Mg./Kg. intraperitoneally, days 2, 3 and 4, three mice per group): 13.6
- increase in life span (L-1210 leukemia): very little increase in life span
- activity against L1210 leukemia (L1210 leukemia): the most active

SMILES: COc1cccc2c1C(=O)c1c(O)c3c(c(O)c1C2=O)C[C@@](O)(C(=O)CO)C[C@@H]3O[C@H]1C[C@H](N)[C@H](O)[C@H](C)O1 [Doxorubicin hydrochloride]
- Mean Life Span (L-1210 leukemia; Table 1, 6 Mg./Kg. intraperitoneally, day 2, four mice per group): 14.5
- Percent Increase In Life Span (L-1210 leukemia; Table 1, 6 Mg./Kg. intraperitoneally, day 2): 33%
- Percent Cures (L-1210 leukemia; Table 1, 6 Mg./Kg. intraperitoneally, day 2, survivors calculated at day 60): 0%
- Mean Life Span (L-1210 leukemia; Table 1, 17 Mg./Kg. intraperitoneally, day 2, four mice per group): 28.5
- Percent Increase In Life Span (L-1210 leukemia; Table 1, 17 Mg./Kg. intraperitoneally, day 2): 161%
- Percent Cures (L-1210 leukemia; Table 1, 17 Mg./Kg. intraperitoneally, day 2, survivors calculated at day 60): 0%
- Mean Life Span (L-1210 leukemia; Table 1, 29 Mg./Kg. intraperitoneally, day 2, four mice per group): 27.75
- Percent Increase In Life Span (L-1210 leukemia; Table 1, 29 Mg./Kg. intraperitoneally, day 2): 155%
- Percent Cures (L-1210 leukemia; Table 1, 29 Mg./Kg. intraperitoneally, day 2, survivors calculated at day 60): 0%
- Percent Increase In Life Span (L-1210 leukemia; Table II, 6 Mg./Kg. intraperitoneally, day 2): 46%
- Percent Cures (L-1210 leukemia; Table II, 6 Mg./Kg. intraperitoneally, day 2, survivors calculated on day 35): 0%
- Mean Life Span (L-1210 leukemia; Table II, 6 Mg./Kg. intraperitoneally, day 2, three mice per group): 13.3
- Percent Increase In Life Span (L-1210 leukemia; Table II, 17 Mg./Kg. intraperitoneally, day 2): 76%
- Percent Cures (L-1210 leukemia; Table II, 17 Mg./Kg. intraperitoneally, day 2, survivors calculated on day 35): 0%
- Mean Life Span (L-1210 leukemia; Table II, 17 Mg./Kg. intraperitoneally, day 2, three mice per group): 16
- Percent Increase In Life Span (L-1210 leukemia; Table II, 29 Mg./Kg. intraperitoneally, day 2): 189%
- Percent Cures (L-1210 leukemia; Table II, 29 Mg./Kg. intraperitoneally, day 2, survivors calculated on day 35): 33%
- Mean Life Span (L-1210 leukemia; Table II, 29 Mg./Kg. intraperitoneally, day 2, three mice per group): 26.3
- increase in life span (L-1210 leukemia): substantial increase in life span
- survivor (L-1210 leukemia; summary of Tables, by itself, at the highest dose level tested): one
